{
  "source": "patent US20190262347A1",
  "about": "“COMPOSITION COMPRISING COMBINATION OF EPICATECHIN AND ANTI-CANCER COMPOUND” (SPHAERA PHARMA PVT. LTD., priority 2016, published 2019)",
  "test_system": "HCT116 induced xenograft",
  "assay": "21 days efficacy study in HCT116 induced xenograft model in mice",
  "format": "in vivo",
  "conditions": "1004 5 mpk, epicatechin 30 mpk",
  "experimental": "Anticancer potential of epicatechin in combination with a PI3K/mTOR inhibitor is evaluated against cancer xenograft model in immunocompromised mice. CD1 nude mice are dosed for a period of 21 days with vehicle control, PI3K/mTOR inhibitor and a combination of PI3K/mTORinhibitor and epicatechin. […] The results are presented at Table 2, Table 3 and FIGS. 1a and 1b.",
  "data": [
    {"smiles": "C[C@H]1COCCN1c1nc(Oc2ccc(C(=O)N(C)C)cc2F)nc(-c2ccc(N)nc2)n1", "note": "[Compound 1004, (S)-4-((4-(6-aminopyridin-3-yl)-6-(3-methylmorpholino)-1,3,5-triazin-2-yl)oxy)-3-fluoro-N,N-dimethylbenzamide]", "values": [
      {"measurement": "T/C % (Mean), Treated/Control on 21st day", "setting": "CD1 nude mice, HCT116 xenograft, 21st day, oral", "value": 29, "unit": "%"},
      {"measurement": "TGI % (Mean), tumor growth inhibition", "setting": "CD1 nude mice, HCT116 xenograft, dosed 21 days, oral", "value": 80, "unit": "%"},
      {"measurement": "Tumor weight", "setting": "HCT116 xenograft in mice", "value": 0.72, "unit": "g"}
    ]}
  ]
}
